In patent US20210395210A1, “INHIBITION OF BACTERIAL CHAPERONIN SYSTEMS” (THE TRUSTEES OF INDIANA UNIVERSITY, priority 2018, published 2021):
Entries after “also recorded” stand apart in the source; their conditions may differ. Where two headings read alike, the source gives them in different places.

How the values were obtained:
HEK 293 kidney cells = experiment: Kidney cell viability assay (Alamar Blue); details: read-out: Human Cell Viability CC50, Kidney (HEK 293); HEK 293 kidney cells, Alamar Blue, 48 h
Procedure: HEK 293 cells were maintained in MEM medium (Corning Cellgro, 10-009 CV) supplemented with 10% FBS (Sigma, F2242). […] Cells at 80% confluence were harvested and diluted in growth medium, then 45 μL of the THLE-3 cells (1,500 cells/well) or HEK 293 cells (1,500 cells/well) were dispensed per well, and plates were sealed with “Breathe Easy” oxygen permeable membranes (Diversified Biotech) and incubated at 37° C., 5% CO2, for 24 h.

MRSA (ATCC BAA-44) = experiment: MRSA resistance generation, 12-day serial passage assay; type: cell-based, Staphylococcus aureus; details: 12 days serial passage, EC50 per passage
Procedure: To identify potential resistance toward compounds 1 and 11, a liquid culture, 12-day serial passage assay was employed as per previously reported procedures, and using the ATCC BAA-44 MRSA strain. MRSA bacteria were streaked onto a Tryptic Soy agar plate and grown overnight at 37° C. A fresh aliquot of Tryptic Soy Broth (TSB) was inoculated with a single bacterial colony and the cultures were grown overnight at 37° C. with shaking (250 rpm). The overnight culture was then sub-cultured (1:5 dilution) into a fresh aliquot of media and grown at 37° C. for 1 h with shaking, then diluted into fresh media to achieve a final OD600 reading of 0.01. Aliquots of the diluted culture (200 μL) were dispensed to 96 well plates along with addition of 2 μL of test compounds in DMSO (1, 11, vancomycin, and a previously-reported GroEUES inhibitor, “28R”). The inhibitor concentration range during the resistance assay was 100 μM to 48.8 nM (2-fold dilution series). Plates were sealed with “Breathe Easy” oxygen permeable membranes (Diversified Biotech) and left to incubate at 37° C. without shaking (stagnant assay). OD600 readings were taken at the 24 h time point to monitor for bacterial growth. A second set of baseline control plates were prepared analogously, without any bacteria added, to correct for possible compound absorbance and/or precipitation, as well as plate and media baseline effects. […]

[1] = tested on: S. aureus Rosenbach (ATCC 25923) in established biofilms; experiment: S. aureus biofilm penetration and bactericidal activity assay; type: cell-based, Staphylococcus aureus; details: read-out: S. aureus Proliferation & Biofilm Assay EC50 Killing Bacteria in Biofilms
Procedure: The biofilm penetration and bactericidal activity assay was carried out with S. aureus Rosenbach (ATCC 25923) as described previously by Kwasny et al. S. aureus bacteria were streaked onto a Tryptic Soy Broth (TSB) agar plate and grown overnight at 37° C. A fresh aliquot of TSB media was inoculated with a single bacterial colony and the cultures were grown overnight at 37° C. with shaking (250 rpm). The overnight culture was then sub-cultured (1:5 dilution) into a fresh aliquot of TSB media supplemented with 0.5% glucose and grown at 37° C. for 1 h with shaking, then diluted into fresh TSB media supplemented with 0.5% glucose to achieve a final OD600 reading of 0.01. Aliquots of the diluted culture (100 μL) were dispensed to 96 well polystyrene plates without any compounds added. A second set of control plates were prepared analogously, but without any bacteria added. Plates were sealed with “Breathe Easy” oxygen permeable membranes (Diversified Biotech) and left to incubate at 37° C. without shaking (stagnant assay) until biofilm was formed. After 24 h, the planktonic cultures (or media blanks in the control plates) were removed and the plates were washed gently 3 times with 200 μL of sterile phosphate buffered saline (PBS). Then, 100 μL aliquots of fresh TSB media were dispensed to the plates along with addition of 1 μL of test compounds in DMSO. The inhibitor concentration range during the assay was 100 μM to 46 nM (3-fold dilution series). The plates were sealed with “Breathe Easy” membranes and incubated at 37° C. without shaking to allow compounds to penetrate and kill bacteria in the biofilms. After 24 h, the cultures were removed and plates were washed again gently 3 times with 200 μL of sterile PBS. The remaining bacteria in the biofilms were allowed to recover by adding 100 μL of fresh TSB media per well and incubating for 24 h at 37° C. At the end of this final incubation, bacterial growth was monitored by measuring the OD600 nm using a Molecular Devices SpectraMax Plus384 microplate reader. […] Results presented represent the averages of EC50 values obtained from at least triplicate experiments.
Next, we evaluated whether or not compounds would be bactericidal to S. aureus that were within already established biofilms. In this assay, we first grew S. aureus bacteria for 24 h in the absence of test compounds so that they could establish biofilms in the wells. After 24 h, the cultures were removed, the wells were washed gently, and fresh media was added along with test compounds or vancomycin. […] Fresh media was then added and the cultures were incubated for another 24 h to allow any viable bacteria remaining in the biofilms to emerge and grow planktonically again.

[2] = Staphylococcus aureus, ATCC25923, 24 h

| SMILES | CC50 (HEK 293 kidney cells) | EC50 [1, 2] | other results |
| --- | --- | --- | --- |
| CC1(C)S[C@@H]2[C@H](NC(=O)[C@H](N)c3ccccc3)C(=O)N2[C@H]1C(=O)O [Ampicillin, ampicillin, reference compound] | > 100 µM | – | – |
| Cc1cc(C(C#N)c2ccc(Cl)cc2)c(Cl)cc1NC(=O)c1cc(I)cc(I)c1O (stereo not drawn) [Closantel, closantel, reference compound] | 75 µM | – | – |
| O=C(Nc1ccc(Sc2nc3ccccc3s2)c(Cl)c1)c1cc(Br)cc(Br)c1O [Compound 1, N-(4-(Benzo[d]thiazol-2-ylthio)-3-chlorophenyl)-3,5-dibromo-2-hydroxybenzamide] | – | 2.4 µM | ability of MRSA to generate resistance (in words) (MRSA (ATCC BAA-44)): not able to easily generate resistance; also recorded: retained sensitivity |
| O=C(Nc1ccc(Sc2nc3ccccc3s2)c(Cl)c1)c1cccc(Br)c1O [Compound 2, N-(4-(Benzo[d]thiazol-2-ylthio)-3-chlorophenyl)-3-bromo-2-hydroxybenzamide] | – | 5.6 µM | – |
| O=C(Nc1ccc(Sc2nc3ccccc3s2)cc1)c1cc(Br)cc(Br)c1O [Compound 5, N-(4-(Benzo[d]thiazol-2-ylthio)phenyl)-3,5-dibromo-2-hydroxybenzamide] | – | 2.3 µM | – |
| O=C(Nc1ccc(Sc2nc3ccccc3s2)cc1)c1ccccc1O [Compound 8, N-(4-(Benzo[d]thiazol-2-ylthio)phenyl)-2-hydroxybenzamide] | – | – | EC50 ([1]; Staphylococcus aureus, ATCC25923, established 24 h biofilm, 24 h with compound, 24 h recovery, OD600): 2 µM |
| O=C(Nc1cccc(Cl)c1)c1cc(Br)cc(Br)c1O [Compound 9, 3,5-Dibromo-N-(3-chlorophenyl)-2-hydroxybenzamide] | 18 µM | – | – |
| O=C(Nc1cccc(Cl)c1)c1cc(Br)ccc1O [Compound 11, 5-Bromo-N-(3-chlorophenyl)-2-hydroxybenzamide] | – | 6.9 µM | ability of MRSA to generate resistance (in words) (MRSA (ATCC BAA-44)): not able to easily generate resistance; also recorded: retained sensitivity |
| O=C(Nc1ccccc1)c1cc(Br)cc(Br)c1O [Compound 13, 3,5-Dibromo-2-hydroxy-N-phenylbenzamide] | 34 µM | – | – |
| O=C(Nc1ccccc1)c1ccccc1O [Compound 16, 2-Hydroxy-N-phenylbenzamide] | > 100 µM | – | – |
| O=C(Nc1ccc(Oc2ccc(Cl)cc2)c(Cl)c1)c1cc(I)cc(I)c1O [Rafoxanide, rafoxanide, reference compound] | > 100 µM | – | – |
| CN[C@H](CC(C)C)C(=O)N[C@H]1C(=O)N[C@@H](CC(N)=O)C(=O)N[C@H]2C(=O)N[C@H]3C(=O)N[C@H](C(=O)N[C@H](C(=O)O)c4cc(O)cc(O)c4-c4cc3ccc4O)[C@H](O)c3ccc(c(Cl)c3)Oc3cc2cc(c3O[C@@H]2O[C@H](CO)[C@@H](O)[C@H](O)[C@H]2O[C@H]2C[C@](C)(N)[C@H](O)[C@H](C)O2)Oc2ccc(cc2Cl)[C@H]1O [Vancomycin, vancomycin, reference compound] | > 100 µM | – | EC50 ([1]; established 24 h biofilm, 24 h with compound, 24 h recovery, OD600): > 100 µM |
